Tests used:
EP4 = EP4 (Homo sapiens (Human), UniProt P35408); test: hEP4 cAMP assay (BT549 breast cancer cells, HTRF cAMP); format: cell-based; settings: antagonistic activity, PGE2 6 nM
Text: (§1) Human tumor cell lines expressing endogenously either EP4 or EP2 are used and cAMP accumulation in cells upon PGE2 stimulation is monitored. SF295 glioblastoma cells express high endogenous EP2 and no EP4, whereas BT549 breast cancer cells, express high endogenous EP4 levels and very low EP2 levels.
(§2) As a detection method for cAMP the HTRF (homogeneous time resolved fluorescence) Cisbio kit (HTRF cAMP dynamic 2 kit 20'000 tests Cisbio Cat. #62AM4PEC) was used, which is based on a competitive immunoassay using a Cryptate-labeled anti-cAMP antibody and d2-labeled cAMP. Native cAMP produced by cells or unlabeled cAMP (for the standard curve) compete with exogenously added d2-labeled cAMP (acceptor) for binding to monoclonal anti-cAMP-Eu3+Cryptate (donor). A FRET signal (Fluorescence Resonance Energy Transfer) is obtained only if the labeled anti-cAMP antibody binds the d2 labelled cAMP, thus the specific signal (i.e. energy transfer) is inversely proportional to the concentration of cAMP in the standard or sample.
(§3) Cells are counted washed and resuspended in assay buffer (AB; HBSS, 20 mM HEPES, 0.2% BSA; 2 mM IBMX).
Plate is pre-incubated 45 minutes at RT. Subsequently, 2.5 microliters of PGE2 (final conc. 6 nM) are transferred into the assay plate. Plate is incubated 30 minutes at RT.

EP2 = EP2 (Homo sapiens (Human), UniProt P43116); test: hEP2 cAMP assay (SF295 glioblastoma cells, HTRF cAMP); format: cell-based; settings: antagonistic activity
Text: as §1, §2, §3
Plate is pre-incubated 45 minutes at RT. […] Plate is incubated 30 minutes at RT.

PTGER4 (EP4) = PTGER4 (EP4) (Homo sapiens (Human), UniProt P35408); test: cell-based
PTGER2 (EP2) = PTGER2 (EP2) (Homo sapiens (Human), UniProt P43116); test: hEP2 b-arrestin assay (PathHunter HEK 293 PTGER2 b-arrestin cells); format: cell-based; settings: antagonistic activity, beta-arrestin assay; read-out: hEP2 b-arr IC50
Description: Plate is pre-incubated 15 minutes at 37° C. Then five microliters of PGE2 (final conc. 5 μM) are transferred into the assay plate. Plate is incubated 120 minutes at 37° C.
(each concentration is measured in duplicate)

EP2, sequence (P43116 whole entry): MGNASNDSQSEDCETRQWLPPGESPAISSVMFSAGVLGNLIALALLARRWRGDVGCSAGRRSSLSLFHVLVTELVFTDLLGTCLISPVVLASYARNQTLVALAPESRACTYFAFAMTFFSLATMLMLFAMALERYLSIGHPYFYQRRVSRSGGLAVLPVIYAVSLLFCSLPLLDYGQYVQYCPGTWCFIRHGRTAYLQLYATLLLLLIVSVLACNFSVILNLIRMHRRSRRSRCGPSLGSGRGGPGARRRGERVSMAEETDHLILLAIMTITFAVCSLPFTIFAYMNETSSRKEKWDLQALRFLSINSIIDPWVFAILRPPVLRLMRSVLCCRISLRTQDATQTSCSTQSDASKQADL
PTGER2 (EP2), sequence (P43116 whole entry): as above
EP4, sequence (P35408 whole entry): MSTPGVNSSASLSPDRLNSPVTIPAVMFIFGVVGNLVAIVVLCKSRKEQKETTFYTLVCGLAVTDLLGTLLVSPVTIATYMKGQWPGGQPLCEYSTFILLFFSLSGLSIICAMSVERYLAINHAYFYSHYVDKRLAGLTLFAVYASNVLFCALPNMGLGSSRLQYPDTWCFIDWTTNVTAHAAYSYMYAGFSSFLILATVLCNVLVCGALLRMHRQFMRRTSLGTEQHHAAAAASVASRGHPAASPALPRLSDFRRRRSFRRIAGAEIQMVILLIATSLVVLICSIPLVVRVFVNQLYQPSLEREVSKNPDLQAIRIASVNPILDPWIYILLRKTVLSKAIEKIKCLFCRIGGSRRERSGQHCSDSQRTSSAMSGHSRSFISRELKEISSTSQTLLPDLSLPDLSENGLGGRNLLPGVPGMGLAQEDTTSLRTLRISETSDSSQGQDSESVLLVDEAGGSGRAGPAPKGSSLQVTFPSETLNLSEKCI
PTGER4 (EP4), sequence (P35408 whole entry): as above

SMILES	IC50 (EP4)	IC50 (EP2)	IC50 (EP4; BT549 cells)	IC50 (PTGER4 (EP4))	IC50 (PTGER2 (EP2))
Cc1c(CCNc2cc(-c3cc(OCCO)c(C(=O)O)s3)ncn2)ccc2ccccc12 [Ex 48]	22 nM	66 nM			
CCOc1cc(-c2cc(NCCc3c(F)cc4ccccc4c3F)ncn2)ccc1CC(=O)O [Ex 107]	76 nM	950 nM			
CCOc1cc(-c2cc(NCCc3cc4c(cc3OC)N(C)C(=O)CC4)ncn2)sc1C(=O)O [Ex 210]	252 nM	794 nM			
CCOc1cc(-c2cc(NCCc3cc4ccccc4cc3OC(F)F)ncn2)ccc1C(=O)O [Ex 211]	253 nM	571 nM			
CCSc1cc(-c2cc(NCCc3ccc4sccc4c3)ncn2)ccc1C(=O)O [Ex 222]	287 nM	279 nM			
CCOc1cc(-c2cc(NCCc3ccc4[nH]ccc4c3)ncn2)ccc1OCC(=O)O [Ex 225, (2-Ethoxy-4-{6-[2-(1H-indol-5-yl)-ethylamino]-pyrimidin-4-yl}-phenoxy)-acetic acid]	289 nM	923 nM			
Cc1c(CCNc2cc(-c3ccc(C(=O)O)c(OCCO)c3)ncn2)ccc2ccccc12 [Ex 234]	325 nM	113 nM			
Cc1c(CCNc2cc(-c3ccc(C(=O)O)c(OC4CCC4)c3)ncn2)ccc2cccnc12 [Ex 235]	325 nM	772 nM			
O=C(O)c1ccc(-c2cc(NCCc3ccc4c(c3)OCCO4)ncn2)cc1OC1CCC1 [Ex 244]	356 nM	552 nM			
CCOc1cc2ccccc2cc1CCNc1cc(-c2ccc(OC(C)(C)C(=O)O)c(OCC)c2)ncn1 [Ex 245]	358 nM	304 nM			
O=C(O)c1ccc(-c2cc(NCCc3cc(Cl)c4c(c3)OCCO4)ncn2)cc1OC1CCC1 [Ex 246]	364 nM	534 nM			
CCOc1cc(-c2cc(NCCc3cc4ccccc4cc3Cl)ncn2)ccc1OCC(=O)O [Ex 247]	365 nM	797 nM			
CCOc1cc(-c2cc(NCCc3cc4ccccc4cc3OC(C)C)ncn2)ccc1CC(=O)O [Ex 258]	390 nM	3610 nM			
CCOc1cc(-c2cc(NCCc3ccc4cc[nH]c4c3)ncn2)ccc1C(=O)O [Ex 259, 2-Ethoxy-4-{6-[2-(1H-indol-6-yl)-ethylamino]-pyrimidin-4-yl}-benzoic acid]	394 nM	302 nM			
CCOc1cc(-c2cc(NCCc3ccc4ccccc4c3Cl)ncn2)ccc1C(=O)O [Ex 260]	404 nM	880 nM			
Cc1c(Cl)c(CCNc2cc(-c3ccc(C(=O)O)c(OC4CCC4)c3)ncn2)cc2cccnc12 [Ex 263]	425 nM	524 nM			

SMILES	IC50 (EP4)	IC50 (EP2)	IC50 (EP4; BT549 cells)	IC50 (PTGER4 (EP4))	IC50 (PTGER2 (EP2))
O=C(O)c1coc2cc(-c3cc(NCCc4ccc5sccc5c4)ncn3)ccc12 [Example 467, 6-[6-(2-Benzo[b]thiophen-5-yl-ethylamino)-pyrimidin-4-yl]-benzofuran-3-carboxylic acid]			155 nM	187 nM	417 nM
CCOc1c(C(=O)O)ccc(-c2cc(NCCc3cc(F)c4sccc4c3)ncn2)c1F [Example 552, 2-Ethoxy-3-fluoro-4-{6-[2-(7-fluoro-benzo[b]thiophen-5-yl)-ethylamino]-pyrimidin-4-yl}-benzoic acid]				385 nM	577 nM
COc1cc(-c2cc(NCCc3cc(F)c4sccc4c3)ncn2)ccc1-c1cc(O)no1 [Example 553, 5-(4-{6-[2-(7-Fluoro-benzo[b]thiophen-5-yl)-ethylamino]-pyrimidin-4-yl}-2-methoxy-phenyl)-isoxazol-3-ol]				80 nM	302 nM
O=C(O)c1ccc(-c2cc(NCCc3cc(F)c4sccc4c3)ncn2)cc1F [Example 554, 2-Fluoro-4-{6-[2-(7-fluoro-benzo[b]thiophen-5-yl)-ethylamino]-pyrimidin-4-yl}-benzoic acid]				884 nM	739 nM
Cc1cc(-c2cc(NCCc3cc(F)c4sccc4c3)ncn2)ccc1C(=O)O [Example 555, 4-{6-[2-(7-Fluoro-benzo[b]thiophen-5-yl)-ethylamino]-pyrimidin-4-yl}-2-methyl-benzoic acid]				835 nM	887 nM
CCCc1cc(-c2cc(NCCc3cc(F)c4sccc4c3)ncn2)sc1CC(=O)O [Example 556, (5-{6-[2-(7-Fluoro-benzo[b]thiophen-5-yl)-ethylamino]-pyrimidin-4-yl}-3-propyl-thiophen-2-yl)-acetic acid]				19 nM	246 nM
CCCc1cc(-c2cc(NCCc3cc(F)c4sccc4c3)ncn2)ccc1C1(C(=O)O)CC1 [Example 557, 1-(4-{6-[2-(7-Fluoro-benzo[b]thiophen-5-yl)-ethylamino]-pyrimidin-4-yl}-2-propyl-phenyl)-cyclopropanecarboxylic acid]				117 nM	994 nM
O=C(O)c1ccc(-c2cc(NCCc3cc(F)c4sccc4c3)ncn2)c2cc[nH]c12 [Example 558, 4-{6-[2-(7-Fluoro-benzo[b]thiophen-5-yl)-ethylamino]-pyrimidin-4-yl}-1H-indole-7-carboxylic acid]				539 nM	684 nM
COc1cc(-c2cc(NCCc3cc(F)c4sccc4c3)ncn2)ccc1CCC(=O)O [Example 560, 3-(4-{6-[2-(7-Fluoro-benzo[b]thiophen-5-yl)-ethylamino]-pyrimidin-4-yl}-2-methoxy-phenyl)-propionic acid]				134 nM	476 nM
O=C(O)c1cccc2cc(-c3cc(NCCc4cc(F)c5sccc5c4)ncn3)[nH]c12 [Example 561, 2-{6-[2-(7-Fluoro-benzo[b]thiophen-5-yl)-ethylamino]-pyrimidin-4-yl}-1H-indole-7-carboxylic acid]				103 nM	388 nM
O=C(O)c1n[nH]c2cc(-c3cc(NCCc4cc(F)c5sccc5c4)ncn3)ccc12 [Example 562, 6-{6-[2-(7-Fluoro-benzo[b]thiophen-5-yl)-ethylamino]-pyrimidin-4-yl}-1H-indazole-3-carboxylic acid]				689 nM	803 nM
O=C(O)c1ccc(-c2cc(NCCc3cc(F)c4sccc4c3)ncn2)cc1O [Example 563, 4-{6-[2-(7-Fluoro-benzo[b]thiophen-5-yl)-ethylamino]-pyrimidin-4-yl}-2-hydroxy-benzoic acid]				582 nM	985 nM
CCOc1c(CC(=O)O)ccc(-c2cc(NCCc3cc(F)c4sccc4c3)ncn2)c1F [Example 564, (2-Ethoxy-3-fluoro-4-{6-[2-(7-fluoro-benzo[b]thiophen-5-yl)-ethylamino]-pyrimidin-4-yl}-phenyl)-acetic acid]				212 nM	817 nM
CCOc1cc(-c2cc(NCCc3ccc4ccccc4c3C)ncn2)ccc1-c1noc(=S)[nH]1 [Example 565, 3-(2-Ethoxy-4-{6-[2-(1-methyl-naphthalen-2-yl)-ethylamino]-pyrimidin-4-yl}-phenyl)-[1,2,4]oxadiazole-5(4H)-thione]				23 nM	58 nM
CCOc1cc(-c2cc(NCCc3ccc4ccccc4c3C)ncn2)ccc1Cc1noc(=O)[nH]1 [Example 566, 3-(2-Ethoxy-4-{6-[2-(1-methyl-naphthalen-2-yl)-ethylamino]-pyrimidin-4-yl}-benzyl)-[1,2,4]oxadiazol-5(4H)-one]				159 nM	297 nM
CCOc1cc(-c2cc(NCCc3ccc4ccccc4c3C)ncn2)ccc1Cc1noc(=S)[nH]1 [Example 567, 3-(2-Ethoxy-4-{6-[2-(1-methyl-naphthalen-2-yl)-ethylamino]-pyrimidin-4-yl}-benzyl)-[1,2,4]oxadiazole-5(4H)-thione]				264 nM	255 nM
